Laboratory results as given in ChEMBL document CHEMBL5257129, “Design, synthesis, and anticancer evaluation of arylurea derivatives as potent and selective type II irreversible covalent FGFR4 inhibitors” (Bioorg Med Chem, 2023).

Legend:
[1] = tested on: Huh-7; test: Antiproliferative activity against human Huh-7 cells assessed as inhibition of cell growth at 10 uM measured after 72 hrs by CCK8 assay; type: functional
[2] = tested on: Hep 3B2; test: Antiproliferative activity against human Hep3B cells assessed as inhibition of cell growth at 10 uM measured after 72 hrs by CCK8 assay; type: functional
[3] = tested on: Huh-7; test: Antiproliferative activity against human Huh-7 cells assessed as inhibition of cell growth measured after 72 hrs by CCK8 assay; type: functional, cell-based; conditions: Huh-7, 72 h
[4] = tested on: Hep 3B2; test: Antiproliferative activity against human Hep3B cells assessed as inhibition of cell growth measured after 72 hrs by CCK8 assay; type: functional, cell-based
[5] = Half life in Sprague-Dawley rat at 5 mg/kg, iv measured upto 24 hrs by LC/MS/MS analysis; type: ADME, organism-based; conditions: in vivo
[6] = Tmax in Sprague-Dawley rat at 5 mg/kg, iv measured upto 24 hrs by LC/MS/MS analysis; type: ADME, organism-based; conditions: in vivo
[7] = Initial plasma concentration in Sprague-Dawley rat at 5 mg/kg, iv measured upto 24 hrs by LC/MS/MS analysis; type: ADME, organism-based
[8] = Cmax in Sprague-Dawley rat at 5 mg/kg, iv measured upto 24 hrs by LC/MS/MS analysis; type: ADME, organism-based; parameters: time < 24 hrs, dose 5 mg/kg, route iv; conditions: in vivo
[9] = AUC(0 to t) in Sprague-Dawley rat at 5 mg/kg, iv measured upto 24 hrs by LC/MS/MS analysis; type: ADME, organism-based; parameters: time < 24 hrs, dose 5 mg/kg, route iv; conditions: in vivo
[10] = AUC(0 to infinity) in Sprague-Dawley rat at 5 mg/kg, iv measured upto 24 hrs by LC/MS/MS analysis; type: ADME, organism-based; parameters: dose 5 mg/kg, time < 24 hrs, route iv; conditions: in vivo
[11] = Apparent volume of distribution in Sprague-Dawley rat at 5 mg/kg, iv measured upto 24 hrs by LC/MS/MS analysis; type: ADME, organism-based; conditions: in vivo, read-out: Vz
[12] = Clearance in Sprague-Dawley rat at 5 mg/kg, iv measured upto 24 hrs by LC/MS/MS analysis; type: ADME, organism-based; conditions: in vivo
[13] = Mean residence time (0 to t) in Sprague-Dawley rat at 5 mg/kg, iv measured upto 24 hrs by LC/MS/MS analysis; type: ADME, organism-based; conditions: in vivo
[14] = Half life in Sprague-Dawley rat at 20 mg/kg, po measured upto 24 hrs by LC/MS/MS analysis; type: ADME, organism-based; conditions: in vivo
[15] = Tmax in Sprague-Dawley rat at 20 mg/kg, po measured upto 24 hrs by LC/MS/MS analysis; type: ADME, organism-based; conditions: in vivo
[16] = Cmax in Sprague-Dawley rat at 20 mg/kg, po measured upto 24 hrs by LC/MS/MS analysis; type: ADME, organism-based; parameters: dose 20 mg/kg, time < 24 hrs, route po; conditions: in vivo
[17] = AUC(0 to t) in Sprague-Dawley rat at 20 mg/kg, po measured upto 24 hrs by LC/MS/MS analysis; type: ADME, organism-based; parameters: dose 20 mg/kg, time < 24 hrs, route po; conditions: in vivo
[18] = AUC(0 to infinity) in Sprague-Dawley rat at 20 mg/kg, po measured upto 24 hrs by LC/MS/MS analysis; type: ADME, organism-based; parameters: dose 20 mg/kg, time < 24 hrs, route po; conditions: in vivo
[19] = Mean residence time (0 to t) in Sprague-Dawley rat at 20 mg/kg, po measured upto 24 hrs by LC/MS/MS analysis; type: ADME, organism-based; conditions: in vivo

IC50 [3] [nM] | Compound | inhibition at 10 µM [1] [%] | inhibition at 10 µM [2] [%] | IC50 [4] [nM] | also measured
990 | Cc1ccc(C(=O)Nc2ccc(CN3CCN(C)CC3)c(C(F)(F)F)c2)cc1C#Cc1cnc2cccnn12 [PONATINIB] | 90.5 | 95.5 | 720 | –
– | CC#CC(=O)Nc1ccc(Oc2ccc(NC(=O)Nc3ccc(CN4CCN(C)CC4)c(C(F)(F)F)c3)c(C)c2)cn1 | 93.2 | 92.3 | – | –
250 | C=CC(=O)Nc1ccc(Oc2ccc(NC(=O)Nc3ccc(CN4CCN(C)CC4)c(C(F)(F)F)c3)cc2)cn1 | 97.7 | 91 | 220 | half-life [5]: 4.75 h; Tmax [6]: 4.98 min; C0 at 24 h [7]: 4930 ng/mL; Cmax [8]: 4190 ng/mL; AUC(0-t) at 24 h [9]: 4240 ng·h/mL; AUC(0-inf) [10]: 4260 ng·h/mL; Vd [11]: 8.1 L/kg; clearance [12]: 19.6 mL/min/kg; MRT last at 24 h [13]: 1.25 h; half-life [14]: 3.12 h; Tmax [15]: 2.67 h; Cmax [16]: 23.7 ng/mL; AUC(0-t) at 24 h [17]: 140 ng·h/mL; AUC(0-inf) [18]: 149 ng·h/mL; MRT last at 24 h [19]: 3.99 h
– | C=CC(=O)Nc1ccc(-c2ccc(NC(=O)Nc3ccc(CN4CCN(CC)CC4)c(C(F)(F)F)c3)c(C)c2)cn1 | 80.3 | 85.4 | – | –
21500 | Cc1cc(-c2ccc(NC(=O)CCl)nc2)ccc1NC(=O)Nc1ccc(CN2CCN(C)CC2)c(C(F)(F)F)c1 | 80.9 | 87.6 | 22100 | –
– | C=CC(=O)Nc1ccc(-c2ccc(NC(=O)Nc3ccc(CN4CCN(C)CC4)c(C(F)(F)F)c3)cc2F)cn1 | 96.7 | 95.7 | – | –
– | C=CC(=O)Nc1ccc(-c2ccc(NC(=O)Nc3ccc(CN4CCN(C)CC4)c(C(F)(F)F)c3)cc2C)cn1 | 96.9 | 95.3 | – | –
1620 | C=CC(=O)Nc1ccc(-c2ccc(NC(=O)Nc3ccc(CN4CCN(C)CC4)c(C(F)(F)F)c3)c(Cl)c2)cn1 | 91.4 | 99.1 | 1270 | –
– | C=CC(=O)Nc1ccc(-c2ccc(NC(=O)Nc3ccc(CN4CCN(C)CC4)c(C(F)(F)F)c3)nc2)cn1 | 59 | 67 | – | –
3380 | C=C(F)C(=O)Nc1ccc(-c2ccc(NC(=O)Nc3ccc(CN4CCN(C)CC4)c(C(F)(F)F)c3)c(C)c2)cn1 | 93 | 91.2 | 3240 | –
– | C=CC(=O)Nc1ccc(Oc2ccc(NC(=O)Nc3ccc(CN4CCN(C)CC4)c(C(F)(F)F)c3)c(C)c2)cn1 | 87.2 | 84.7 | – | –
– | C=CC(=O)Nc1ccc(-c2ccc(NC(=O)Nc3ccc(CN4CCN(C)CC4)c(C(F)(F)F)c3)cc2)cn1 | 94.8 | 95.8 | – | –
– | C=CC(=O)Nc1ccc(-c2cnc(NC(=O)Nc3ccc(CN4CCN(C)CC4)c(C(F)(F)F)c3)cn2)cn1 | 84.5 | 86.1 | – | –
1020 | C/C=C/C(=O)Nc1ccc(Oc2ccc(NC(=O)Nc3ccc(CN4CCN(C)CC4)c(C(F)(F)F)c3)c(C)c2)cn1 | 86.7 | 87 | 1120 | –
3350 | C=CC(=O)Nc1ccc(-c2ccc(NC(=O)Nc3ccc(CN4CCN(C)CC4)c(C(F)(F)F)c3)c(C)c2)cn1 | 94.8 | 94.6 | 3180 | –
